Read-outs that look alike come from different tables or passages of the source.
Tests used:
Test in all cases: ERE-luciferase transactivation, HELN-zfER cells
Type in all cases: cell-based
zfERα (Esr1) = molecular target: T1, zfERα (Esr1) (Danio rerio, UniProt P57717)
T1 sequence (P57717 1-569): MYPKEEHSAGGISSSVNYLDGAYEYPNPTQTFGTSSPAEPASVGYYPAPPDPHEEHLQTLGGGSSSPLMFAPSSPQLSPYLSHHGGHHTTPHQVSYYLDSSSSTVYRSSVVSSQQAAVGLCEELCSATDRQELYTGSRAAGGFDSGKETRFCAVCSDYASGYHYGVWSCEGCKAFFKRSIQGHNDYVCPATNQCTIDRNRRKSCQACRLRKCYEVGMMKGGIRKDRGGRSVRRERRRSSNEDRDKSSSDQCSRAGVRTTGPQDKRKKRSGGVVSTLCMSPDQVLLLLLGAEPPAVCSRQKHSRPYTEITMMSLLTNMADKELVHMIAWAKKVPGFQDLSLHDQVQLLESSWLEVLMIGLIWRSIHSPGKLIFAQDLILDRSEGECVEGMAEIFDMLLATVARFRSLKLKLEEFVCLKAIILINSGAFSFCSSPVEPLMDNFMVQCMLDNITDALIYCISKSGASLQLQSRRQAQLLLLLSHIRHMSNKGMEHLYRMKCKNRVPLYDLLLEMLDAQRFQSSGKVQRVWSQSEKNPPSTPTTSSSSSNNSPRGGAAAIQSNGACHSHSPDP

zfERβ2 (Esr2a) = zfERβ2 (Esr2a) (Danio rerio, UniProt Q7ZU32)
zfERβ2 (Esr2a), sequence (Q7ZU32 1-553): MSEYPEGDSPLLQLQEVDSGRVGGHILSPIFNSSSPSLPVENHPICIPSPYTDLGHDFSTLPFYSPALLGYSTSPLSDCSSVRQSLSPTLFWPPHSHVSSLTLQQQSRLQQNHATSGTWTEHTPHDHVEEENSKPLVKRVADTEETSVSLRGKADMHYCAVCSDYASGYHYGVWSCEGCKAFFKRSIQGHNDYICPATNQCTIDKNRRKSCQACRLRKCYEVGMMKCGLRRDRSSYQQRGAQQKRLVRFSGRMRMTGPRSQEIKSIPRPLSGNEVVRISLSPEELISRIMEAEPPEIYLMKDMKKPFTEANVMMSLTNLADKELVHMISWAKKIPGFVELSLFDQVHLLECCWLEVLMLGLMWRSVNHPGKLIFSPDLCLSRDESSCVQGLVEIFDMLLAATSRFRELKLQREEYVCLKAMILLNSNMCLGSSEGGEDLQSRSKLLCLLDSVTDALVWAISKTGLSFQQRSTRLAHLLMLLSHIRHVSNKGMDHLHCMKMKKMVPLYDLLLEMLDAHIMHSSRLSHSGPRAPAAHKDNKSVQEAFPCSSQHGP

zfERβ1 (Esr2b) = molecular target: T2, zfERβ1 (Esr2b) (Danio rerio, UniProt Q5PR29)
T2 sequence (Q5PR29 1-592): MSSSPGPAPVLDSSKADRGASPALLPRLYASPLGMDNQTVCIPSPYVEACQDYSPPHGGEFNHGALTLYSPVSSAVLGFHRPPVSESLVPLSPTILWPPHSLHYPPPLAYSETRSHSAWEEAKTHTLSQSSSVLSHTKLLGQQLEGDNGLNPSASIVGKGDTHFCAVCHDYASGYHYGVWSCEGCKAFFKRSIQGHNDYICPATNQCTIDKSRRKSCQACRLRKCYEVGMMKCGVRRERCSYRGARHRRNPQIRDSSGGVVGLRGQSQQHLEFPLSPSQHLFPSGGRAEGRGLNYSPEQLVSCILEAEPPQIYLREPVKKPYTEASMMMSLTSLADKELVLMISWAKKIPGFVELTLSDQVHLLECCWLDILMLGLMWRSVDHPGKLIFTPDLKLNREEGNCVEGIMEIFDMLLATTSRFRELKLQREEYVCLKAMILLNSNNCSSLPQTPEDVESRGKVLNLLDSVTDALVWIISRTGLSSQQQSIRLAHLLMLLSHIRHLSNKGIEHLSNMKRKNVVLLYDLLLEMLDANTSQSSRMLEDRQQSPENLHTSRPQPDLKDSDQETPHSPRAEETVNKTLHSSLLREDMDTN

EC50 (zfERα (Esr1)) [µM]	EC50 (zfERβ2 (Esr2a)) [µM]	EC50 (zfERβ1 (Esr2b)) [µM]	Compound	EC50 (zfERα (Esr1); read-out: zfERα, agonist mode, 16 h, 28°C) [µM]	EC50 (zfERβ2 (Esr2a); read-out: zfERβ2, agonist mode, 16 h, 28°C) [µM]	EC50 (zfERβ1 (Esr2b); read-out: zfERβ1, agonist mode, 16 h, 28°C) [µM]
0.00065 ± 0.0001	0.0695 ± 0.0175	0.271 ± 0.045	C[C@]12CC[C@@H]3c4ccc(O)cc4CC[C@H]3[C@@H]1C[C@H]1OC(=O)C[C@]12O [16α-LE2, 3,17-Dihydroxy-19-nor-17α-pregna-1,3,5(10)-triene-21,16α-lactone]			
			Oc1ccc(C(c2ccc(O)cc2)(C(F)(F)F)C(F)(F)F)cc1 [BPAF]	0.084 ± 0.027	0.897 ± 0.268	0.758 ± 0.131
0.469 ± 0.042	2.8 ± 0.562	3.33 ± 0.381	CC(C)(c1ccc(O)cc1)c1ccc(O)cc1 [BPA]			

Source: article PMC6748385 (Toxicology and applied pharmacology, 2019)
